Experiments:
[1] = tested on: redlegged earth mite (H. destructor; RLEM); experiment: whole plant or invertebrate
Method: On the 14th of May 2022, H. destructor were collected from capeweed (Arctotheca calendula) in South Morang, Victoria (−37.625, 145.110), a site with no known history of insecticide application. Mites were collected via suction using a Stihl SH55 blower vacuum, placed in plastic containers with paper towel and vegetation, and transported back to the laboratory, where they were stored at 4° C. until testing.
Serial dilutions were prepared for each insecticide (Table 1), with the addition of a non-ionic surfactant (Tween 20) at 0.01% to aid the spread of the insecticide and ensure even coating. […] Nine concentrations of pyridaben ranging from the proposed field rate of 1480 mL diluted in 100 L of water (1998 mg a.i./L) to 1×10^−5 were serially diluted and tested along with a water control. Eight concentrations of omethoate, ranging from 10 times the field rate of 100 mL diluted in 100 L of water (290 mg a.i./L) to 1×10^−5, were tested along with a water control. Seven concentrations of bifenthrin, ranging from 10 times the field rate of 40 mL diluted in 100 L of water (100 mg a.i./L) to 1×10^−5, were tested along with a water control. For each insecticide concentration tested, approximately 10 mL of solution was poured into a 15 mL plastic vial and swirled to ensure a complete coating, with excess liquid removed. Six vials were coated per concentration and were left to dry overnight. Control vials were treated in the same way, except water (with the addition of 0.01% Tween) was used.
(§1) Approximately eight individual H. destructor were then placed into each vial along with 2-3 leaves of common vetch (Vicia sativa), which provided food and humidity. Vials were then sealed with a screw lid and placed in a controlled temperature cabinet at 18° C. After 24-hours exposure, mites were scored as alive (moving freely), incapacitated (inhibited movement), or dead (no movement over a 5 second period).
Dose-response curves were generated by plotting percentage mortality against log concentration. […] Logistic regression is well suited for the analysis of binary response data (e.g., dead/alive). All analyses were conducted using R version 3.3.1 (R Development Core Team 2022).

[2] = tested on: couch mite (Aceria cynodoniensis); experiment: Field trial in Santa Ana couch turfgrass, control of couch mite (Example 3); assay type: in vivo
Method: A field trial was conducted in Santa Ana couch turfgrass, to evaluate fenpyroximate for control of couch mite (Aceria cynodoniensis). The trial was located at Terrey Hills Golf and Country Club, New South Wales (−33.668, 151.217). […] All treatments were applied using a hand boom fitted with XR11004 nozzles and in a spray volume of 430 L/ha.
The incidence of couch mite damage, to the terminal growth point (known as witches' broom) was assessed 42 days after the second application. Turf biomass and vigor were assessed at the same timing on a 0 to 10 rating scale, along with NDVI using a Greenseeker.
All data was statistically analyzed using analysis of variance and Fisher's protected least significant different test (Fishers LSD). The level of significance for all tests was P<0.05.

[3] = tested on: insecticide-resistant population of redlegged earth mite (H. destructor; RLEM); experiment: whole plant or invertebrate; settings: Halotydeus destructor, 24 h, read-out: % RLEM mortality, Resistant
Method: (§2) The insecticide-susceptible H. destructor population tested in this bioassay was collected from burr medic (Medicago polymorpha) and barley grass (Hordeum leporinum) in Moulamein, NSW (−35.102, 144.026), a site with no known history of insecticide application. […] Mites were collected via suction using a Stihl SH55 blower vacuum, placed in plastic containers with paper towel and vegetation, and transported back to the laboratory, where they were stored at 4° C. until testing.
(§3) Serial dilutions were prepared for each insecticide (Table 9), with the addition of a non-ionic surfactant (Tween 20) at 0.01% to aid the spread of the insecticide and ensure even coating. […] Nine concentrations of bifenthrin were tested, ranging from 1×10^−5 to 10 times the field rate of 40 mL diluted in 100 L of water (100 mg a.i./L). Seven concentrations of omethoate were tested, ranging from 1×10^−5 to 10 times the field rate of 100 mL in 100 L of water (290 mg a.i./L).
as §1, with “Six vials were coated per concentration and were left to dry overnight. Control vials were treated in the same way, except water (with the addition of 0.01% Tween) was used. The next day,” for “Approximately”
(§4) Dose-response curves were generated by plotting percentage mortality against log concentration. A series of logistic models were used to quantify the sensitivity of H. destructor to each chemical and to test whether any differences in sensitivity were present between the two populations. Logistic regression is well suited for the analysis of binary response data (e.g., dead/alive). Each model included chemical concentration and H. destructor population as fixed-effect predictors, which allowed testing for whether populations had average differences in mortality (i.e., model intercept) via F tests. It was then determined if populations had differences in mortality that were dependent on chemical concentration (i.e., differences in regression slopes) by comparing the inclusion of a population×concentration predictor (i.e., allowing slopes to vary between populations). […] The resulting LC50 values were used to quantify the level of insecticide resistance (resistance ratios) relative to the known insecticide-susceptible population. All analyses were conducted using R version 4.3.1 (R Development Core Team 2023).

[4] = tested on: insecticide-susceptible population of redlegged earth mite (H. destructor; RLEM); experiment: whole plant or invertebrate; settings: Halotydeus destructor, 24 h, read-out: % RLEM mortality, Susceptible
Method: as §2, §3
as §1, with “Six vials were coated per concentration and were left to dry overnight. Control vials were treated in the same way, except water (with the addition of 0.01% Tween) was used. The next day,” for “Approximately”
as §4

[5] = Halotydeus destructor, 24 h, read-out: % RLEM mortality

## Cc1nn(C)c(Oc2ccccc2)c1C=NOCc1ccc(C(=O)OC(C)(C)C)cc1 [Fenpyroximate]
[1]; 24 hours exposure
  concentrations at which mite mortality was observed: greater than 50 mg a.i./L
[1]; [5]
  mortality at 0.01 µg/mL: 0%
  mortality at 0.1 µg/mL: 0%
  mortality at 1 µg/mL: 0%
  mortality at 10 µg/mL: 0%
  mortality at 30 µg/mL: 0%
  mortality at 50 µg/mL: 6%
  mortality at 100 µg/mL: 30.5%
  mortality at 300 µg/mL: 93.8%
  mortality at 500 µg/mL: 100%
  mortality at 1000 µg/mL: 98.7%
[1]; concentration of 300 g a.i./L (as printed in text)
  control of RLEM: 93.8%
[1]; concentration of 500 g a.i./L (as printed in text)
  control of RLEM: 100%
[1]; laboratory bioassay, 24 hours exposure
  efficacy against RLEM (in words): highly efficacious
[2]; 42 DAA2, 0 to 10 rating scale, product rate mL/ha: Prophesy 500, Thumper 2000 (+ BS 1000 0.25% v/v), Fenpyroximate 50 SC 4000
  Biomass and vigor (0-10), 42 DAA2: 4.8
[2]; 42 DAA2, Greenseeker, product rate mL/ha: Prophesy 500, Thumper 2000 (+ BS 1000 0.25% v/v), Fenpyroximate 50 SC 4000
  NDVI, 42 DAA2: 0.63
[2]; 42 days after second application, product rate mL/ha: Prophesy 500, Thumper 2000 (+ BS 1000 0.25% v/v), Fenpyroximate 50 SC 4000 (200 g ai/ha)
  % Incidence mite damage, 42 DAA2: 47.0%
[2]; Pre-spray (baseline), 0 to 10 rating scale
  Biomass and vigor (0-10), Pre-spray: 4.1 a
[2]; Pre-spray (baseline), Greenseeker
  NDVI, Pre-spray: 0.55 a
[2]; Pre-spray (baseline), witches' broom
  % Incidence mite damage, Pre-spray: 95.8 a %
[2]; versus untreated, P<0.05
  incidence of couch mite damage (in words): significantly reduced
  turf biomass and vigor and NDVI (in words): significantly improved
[3]
  mortality at 0.1 µg/mL: 4.6%
  mortality at 10 µg/mL: 11.2%
  mortality at 100 µg/mL: 45.7%
  mortality at 300 µg/mL: 86.3%
  mortality at 1000 µg/mL: 100%
  mortality at 10000 µg/mL: 100%
[4]
  mortality at 0.1 µg/mL: 6.9%
  mortality at 1 µg/mL: 12.6%
  mortality at 10 µg/mL: 11.3%
  mortality at 100 µg/mL: 47.3%
  mortality at 300 µg/mL: 92.2%
  mortality at 1000 µg/mL: 98.5%
  mortality at 10000 µg/mL: 100%

From patent publication US20260262641A1 (priority 2023, published 2026)
